# Entries after “also recorded” stand apart in the source; their conditions may differ.
# What was measured:
# [1] = system: dG1; experiment: Thermal stability of PBX1 dG1 with G4-specific ligands; format: binding
# [2] = system: PBX1; experiment: PBX1 mRNA and protein levels by qRT-PCR and western blot in B16-F10 cells; format: cell-based, mouse; conditions: for mRNA level of PBX1: qRT-PCR; for protein level of PBX1: western blot, normalized to GAPDH
# Experimental: RNA extraction and quantitative RT-PCR detection: total RNA is extracted from cultured cells by using TRIzol (Invitrogen, USA), then is converted into cDNA by SuperScript III First-Strand Synthesis SuperMix (Invitrogen, USA). qRT-PCR detection is performed by using SYBR Green®Mix (Invitrogen, USA) in ABI 7500 (Invitrogen, USA). A relative expression quantity of RNA is calculated by using a comparative CT method.
# Immunoblotting: for protein analysis of a whole-cell lysate, cells are lysed with RIPA (CWBIO, Beijing, China) buffer solution. For tumors, liquid nitrogen is first used to pulverize tissues. Then, the lysate is generated on ice with the RIPA (CWBIO, Beijing, China) buffer solution for 20 minutes, and then centrifuged at 4° C., 13000 rpm for 15 minutes. Protein-containing supernatant is transferred to the fresh microcentrifuge tube, and stored at −20° C. (short-term storage) for subsequent use. The protein is quantified by using the BIO-RAD DC protein assay. The total proteins are electrophoresed on SDS-polyacrylamide gels. Then, the proteins are transferred to polyvinylidene difluoride (PVDF) membrane. After incubation with the primary antibody overnight on the shaker at 4° C., the membrane is washed 6 times (5 minutes each time) with TBS-T (Invitrogen, USA). Then, blots are incubated with horseradish peroxidase (IRP)-conjugated secondary antibodies for 60 minutes at RT on the plate shaker. The membrane is cleaned by TBS-T (6×5 minutes). Detection on immunoreactive bands is performed by using SuperSignalmWest Pico chemiluminescence substrate kit (Thermo Fisher Scientific, USA) and Western blotting detection system (BioRad, USA). GAPDH is used as the loading control for western blotting. The intensity levels of the bands are normalized to GAPDH.
# [3] = system: PBX1 transcript; experiment: BG4 RNA immunoprecipitation (RIP) followed by qRT-PCR in A375 cells; format: cell-based, human
# Experimental: FIGS. 2A-2G are features formed by dG1 and rG1 in vitro and in cells. In (FIG. 2A), Left: CD spectra of WT and Mut dG1, and Right: CD spectra of WT and Mut rG1. CD is circular dichroism. In (FIG. 2B), Left: gel mobility assay of WT and Mut dG1, and Right: gel mobility assay of WT and Mut rG1. In (FIG. 2C), under specified conditions, fluorescence-on assay of NMM in absence of presence of dG1 or rG1, and their G/A mutant. In (FIG. 2D), the occupancy of BG4 in the PBX1 promoter region is measured in A375 cells by BG4 chromatin immunoprecipitation (ChIP), followed by qRT-PCR. In (FIG. 2E), RNA immunoprecipitation (RIP) detection is performed to show the association between BG4 and the PBX1 transcript in A375 cells, followed by qRT-PCR. In (FIG. 2F), the occupancy of BG4 in the PBX1 promoter region is measured, by the BG4 chip, in A375 cells treated with or without PDS and TMPyP4, followed by qRT-PCR. […] SEM represents the standard error of mean. *P< 0.05, **P< 0.01***P< 0.001.
# In this embodiment, several methods are further employed to verify the formation of dG1 and rG1. First, circular dichroism (CD) is used to examine the molar ellipticity of dG1 and rG1 sequences (33 nt) and mutants thereof, and the mutants are designed to eliminate G4 formation. […] N-methyl mesoporphyrin IX (NMN) is the well-known fluorescent G4-specific ligand that can be used for studies of G4 formation in vitro. Both dG1 and rG1 are found to enhance the fluorescence of N N (FIG. 2C). In addition, in this embodiment, chromatin immunoprecipitation (ChIP) and RNA immunoprecipitation (RIP) detection are performed in A375 cells using the well-known G4-specific antibody BG4. […] In summary, dG1 and rG1 can fold stable G4 structures in vitro and in cells. […] Therefore, the ability of these G4-specific ligands to interact with PBX1 G4s is investigated next.
# Control:mG*mT*mC*mC*mA*mC*mA*mA*mA*mC*mA*mC*mA*mA*mC*mT*mC* mC*mT*mG*). […] This example also establishes short-term cultures of patient-derived melanoma xenograft (PDX)-derived tumor cells (PDCs) (FIG. 5D). […]
# [4] = system: A375 cells; experiment: In vitro cell invasion experiment (Transwell), A375; format: cell-based, human; conditions: Transwell with Matrigel, 24 hours
# Experimental: In vitro cell invasion experiment: in the Transwell invasion experiment, Matrigel is used as an invasive supraluminal membrane barrier (Corning, USA). The lower transwell chamber is filled with 2.5% serum containing DMEM medium. The cells are suspended at an upper chamber. After incubation for 24 hours, the filter is removed, and cells on the membrane are fixed by using methanol. Cells stained with 0.5% crystal violet infiltrate the surrounding matrix. The dye is washed with water and the cells are examined under the microscope (Leica, Germany). Six micrographs are taken for each person.
# [5] = system: PBX1 rG1; experiment: EGFP reporter gene system, confocal fluorescence; format: cell-based; conditions: HEK293T cells; 2 μM PDS or 5 μM TMPyP4
# Experimental: Construction of an EGFP reporter vector: the reporter vector (Inovogen Tech. Co., Beijing, China) with pLV-EGFP-N as the backbone gene encodes the rG1 site of the PBX1 5′UTR sequence. By using the Strata gene rapid change site-directed mutagenesis kit, point mutation is performed on the rG1 site.
# Given that G4s in the promoter and transcript are involved in the regulation of transcription and translation related processes, it is speculated that dG1 in the PBX1 promoter may regulate the transcription of PBX1, and rG1 in 5′UTR of the PBX1 transcript may regulate the transcription of PBX1. In addition, the luciferase reporter assay is first performed. The dG1 promoter sequence (designated as dG1-wt) and mutated dG1 promoter sequence (designated as dG1-mut) of PBX1 are cloned into pGL3 luciferase reporter vector. […] In addition, this embodiment further constructs an enhanced green fluorescent protein (EGFP) reporter gene system, to study the effect of rG1 on translation. The rG1 transcript sequence (designated as rG1-wt) and mutant rG1 transcript sequence (designated as rG1-mut) of PBX1 are fused to 5′UTR of EGFP, and the reporter gene vector is transfected into HEK293T cells. By confocal fluorescence experiments, the EGFP fluorescence intensity of rG1-WT is less than that of rG1-MUT, and PDS or TMPyP4 decreases the fluorescence intensity of rG1-WT in HEK293T cells (FIG. 3B). […]
SMILES,thermal stability of dG1 [1],mRNA level of PBX1 [2],protein level of PBX1 [2],PBX1 transcript pulled down by BG4 [3],invasion [4],EGFP fluorescence intensity of rG1-WT [5]
"NCCOc1cc(C(=O)Nc2cc(OCCN)c3ccccc3n2)nc(C(=O)Nc2cc(OCCN)c3ccccc3n2)c1 [PDS, Pyridostatin]",remarkably enhance,inhibit; also recorded: remarkably reduces,inhibit; also recorded: remarkably reduces,enhance,inhibit,decreases
C[n+]1ccc(-c2c3nc(c(-c4cc[n+](C)cc4)c4ccc([nH]4)c(-c4cc[n+](C)cc4)c4ccc([nH]4)c(-c4cc[n+](C)cc4)c4nc2C=C4)C=C3)cc1 [TMPyP4],remarkably enhance,inhibit; also recorded: remarkably reduces,inhibit; also recorded: remarkably reduces,enhance,inhibit,decreases

# — patent US20240076667A1, “APPLICATION OF ANTISENSE OLIGONUCLEOTIDE TARGETING PBX1 PROMOTER REGION G-QUADRUPLEX IN PREPARATION OF MEDICINE FOR TREATING MELANOMA” (JILIN UNIVERSITY, priority 2022, published 2024)
